Results: patent US10113155B2, “Steviol glycosyltransferase and gene encoding same” (SUNTORY HOLDINGS LIMITED, priority 2012, dated 2018)

B1: UGT73E1: reported stevia glycosyltransferase, 98% identical to UGT73E1 homologous protein 1 (protein, UniProt Q6VAA9 1-495, looked up)
UDP-glycosyltransferase 73E1: MSPKMVAPPTNLHFVLFPLMAQGHLVPMVDIARILAQRGATVTIITTPYHANRVRPVISRAIATNLKIQLLELQLRSTEAGLPEGCESFDQLPSFEYWKNISTAIDLLQQPAEDLLRELSPPPDCIISDFLFPWTTDVARRLNIPRLVFNGPGCFYLLCIHVAITSNILGENEPVSSNTERVVLPGLPDRIEVTKLQIVGSSRPANVDEMGSWLRAVEAEKASFGIVVNTFEELEPEYVEEYKTVKDKKMWCIGPVSLCNKTGPDLAERGNKAAITEHNCLKWLDERKLGSVLYVCLGSLARISAAQAIELGLGLESINRPFIWCVRNETDELKTWFLDGFEERVRDRGLIVHGWAPQVLILSHPTIGGFLTHCGWNSTIESITAGVPMITWPFFADQFLNEAFIVEVLKIGVRIGVERACLFGEEDKVGVLVKKEDVKKAVECLMDEDEDGDQRRKRVIELAKMAKIAMAEGGSSYENVSSLIRDVTETVRAPH

Tests used:
[1] = target: T1, UGT73E1 homologous protein 1 (Stevia rebaudiana, UniProt Q6VAA9); test: Enzyme activity of UGT73E1 homologous protein 1: glucosylation of sugar acceptor substrates, LC-MS analysis; assay type: biochemical; details: for products found in the reaction solution with UGT73E1 homologous protein 1: 2 mM UDP-glucose, 0.1 mM sugar acceptor substrate, potassium phosphate buffer pH 7.0, 30° C., 1 hour
T1 construct: designed to carry the open reading frame of the UGT73E1 homologous protein 1 gene in frame with a His tag; made in house; host or cells: E. coli BL21(DE3)
T1 sequence (Q6VAA9 whole entry H50D/D106H/L131W/P152K/L157P/I160M/V199L/A305T/L422S): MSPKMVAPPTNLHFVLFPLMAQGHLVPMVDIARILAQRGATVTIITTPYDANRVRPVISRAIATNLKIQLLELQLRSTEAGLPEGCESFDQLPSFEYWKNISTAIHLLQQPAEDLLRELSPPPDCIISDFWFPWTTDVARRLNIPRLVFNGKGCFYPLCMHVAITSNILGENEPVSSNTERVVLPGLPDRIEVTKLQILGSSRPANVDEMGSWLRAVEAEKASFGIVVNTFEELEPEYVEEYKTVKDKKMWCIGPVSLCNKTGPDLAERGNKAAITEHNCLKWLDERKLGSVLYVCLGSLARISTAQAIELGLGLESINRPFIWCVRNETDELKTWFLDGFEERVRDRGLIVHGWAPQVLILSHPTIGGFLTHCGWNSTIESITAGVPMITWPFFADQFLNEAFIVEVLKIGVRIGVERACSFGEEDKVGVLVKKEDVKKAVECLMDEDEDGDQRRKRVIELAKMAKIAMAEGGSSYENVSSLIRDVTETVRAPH
Procedure: Standard enzyme reaction conditions are as follows. A reaction solution (2 mM UDP-glucose, 0.1 mM sugar acceptor substrate (steviol), 100 mM potassium phosphate buffer (pH 7.0), 25 μl purified UGT73E1 homologous protein 1 enzyme solution) was prepared in a volume of 50 μl with distilled water and reacted at 30° C. for 1 hour. The enzyme reaction solution (5 μl) was analyzed by LC-MS under the following conditions.
Column: Waters Sunfire C18 3.5 um (2.0 mm I.D.×20 mm)
Mobile phase: A: MilliQ Water (+0.05% formic acid), B: MeCN
Gradient: linear concentration gradient of B from 15% to 55% over 20 minutes
Flow rate: 0.2 ml per minute

[2] = reported in previous studies (Non-patent Document 2); cited from earlier work

| Molecule | products found in the reaction solution with UGT73E1 homologous protein 1 [1] | stevioside peak in the reaction solution with UGT73E1 homologous protein 1 ([1]; substrate reacted with UGT73E1 homologous protein 1) | glycosylation activity on steviol glycosides [2] |
| --- | --- | --- | --- |
| C=C1C[C@@]23CC[C@H]4[C@@](C)(CCC[C@@]4(C)C(=O)O)[C@@H]2CC[C@]1(O[C@@H]1O[C@H](CO)[C@@H](O)[C@H](O)[C@H]1O)C3 [steviolmonoside] | two peaks (peak E and peak F) were newly obtained | – | – |
| C=C1C[C@@]23CC[C@H]4[C@@](C)(CCC[C@@]4(C)C(=O)O[C@@H]4O[C@H](CO)[C@@H](O)[C@H](O)[C@H]4O)[C@@H]2CC[C@]1(O[C@@H]1O[C@H](CO)[C@@H](O)[C@H](O)[C@H]1O)C3 [rubusoside] | Compound Z which appears to be a triglucoside of steviol was newly generated | no significant stevioside peak can be found | – |
| C=C1C[C@@]23CC[C@H]4[C@@](C)(CCC[C@@]4(C)C(=O)O)[C@@H]2CC[C@]1(O)C3 (single isomer, unassigned) [steviol] | four types of products were newly found | – | – |
| C=C1C[C@@]23CC[C@H]4[C@@](C)(CCC[C@@]4(C)C(=O)O)[C@@H]2CC[C@]1(O[C@@H]1O[C@H](CO)[C@@H](O)[C@H](O)[C@H]1O[C@@H]1O[C@H](CO)[C@@H](O)[C@H](O)[C@H]1O)C3 [steviolbioside] | a product which appears to be stevioside (peak F) was also detected | – | – |
| B1 | – | – | no glycosylation activity on steviol glycosides |
